Patent US10473646B2, “In vitro culturing or expanding human or animal tissue” (UNIVERSITAETSSPITAL BASEL, priority 2014, dated 2019)
One block for each molecule: values may come before it.

Columns and labels:
Format in all cases: cell-based, human
[1] = system: Luminal A breast cancer tissue; assay: Estrogen supplementation effect on in vitro culture of Luminal A breast cancer tissue chunks; details: 200 ng/mL, medium with 10% autologous serum
Method: (§1) The system is tested mainly for colorectal cancer and Luminal A breast cancer. Thereby a tissue specimen is manually cut in small chunks at a size of 1 mm to 2 mm per side. The pieces are placed in between two collagen scaffolds having a diameter of 8 mm to create an assembly or “sandwich” that it is then placed in a perfusion chamber of the 3D perfusion bioreactor. For each bioreactor, 8-10 mL of culture media are used. The chunks are cultured for 10 to 20 days without medium change.
(§2) Thereby, essentially the same or similar methods and procedures are applied as described hereinbefore in connection with the second example directed to colorectal cancer tissue.
(§3) Luminal A breast cancer is defined as estrogen receptor (ER) positive, progesterone receptor (PR) positive, human epidermal growth factor receptor 2 (HER2) negative and with few proliferating tumor cells (low % of Ki67 positive cells). This type of tumor requires estrogen as growth factor for its survival and expansion. The downsized tissue or tissue chunks are cultured in a medium containing 10% of human autologous serum (AS), therefore receiving all the growth factors comprising the estrogen. […]
The estrogen supplementation effect on in vitro culture is evaluated. […]

[2] = system: Luminal A breast cancer tissue; assay: In-vitro drug test on Luminal A breast cancer tissue chunks cultured in 3D perfusion bioreactor; details: 100 nM, added at day 0 of bioreactor culture
Method: as §1, §2, §3

[3] = system: tumor infiltrating lymphocytes (TILs) in Luminal A Breast Cancer (MAM18); assay: PHA stimulation of tumor infiltrating lymphocytes in in vitro cultured tumor chunks (immunohistochemistry CD45, CD3, CD68); details: 1 ng/mL added at day 0, 7 days
Method: One important component of the tumor microenvironment is represented by the tumor infiltrating lymphocytes (TILs) that for some tumor types plays an important role by determining the patient prognosis and it is gaining a major attention in the so called cancer immune-therapy. By using PHA (Phytohemagglutinin), TILs are stimulated in their metabolic and proliferative activity, in order to understand if it was possible their stimulation inside the in vitro cultured tumor chunks. The PHA (1 ng/mL) is added at the beginning of the bioreactor culture (day 0).
These raise the possibility to study immunological question or test cancer immunotherapies on in vitro cultured tumor specimens.

Molecule: 2-Estradiol
- survival and proliferation of the tissue with extra estrogen supplementation (E+) versus without (E-) [1]: do not show any particular difference

- effect of anti-estrogen receptor drug treatment on in vitro cultured tumor tissue (FIG. 13) [2]: there is an effect
Molecule: C[C@]12CC[C@@H]3c4ccc(O)cc4C[C@@H](CCCCCCCCC[S+]([O-])CCCC(F)(F)C(F)(F)F)[C@H]3[C@@H]1CC[C@@H]2O (stereo partly drawn) [Fulvestrant]

Molecule: Phytohemagglutinin [PHA]
- presence of TILs after PHA treatment (CD45, CD3, CD68 staining, FIG. 14) [3]: the presence of TILs is still detectable
